{"source": "paper PMC11604869", "about": "“Stereoselective block of the hERG potassium channel by the Class Ia antiarrhythmic drug disopyramide” (Cellular and Molecular Life Sciences: CMLS, 2024)", "origin": "cited, not measured here", "key": {"rat ventricular ITO": {"tested_on": "rat ventricular ITO", "parameters": "method as in PMID 11327018", "conditions": "100 μM"}, "rabbit ventricular ITO": {"tested_on": "rabbit ventricular ITO", "parameters": "method as in PMID 9550298", "conditions": "30 μM"}, "[1]": {"parameters": "method as in PMID 6740739"}, "[2]": {"conditions": "plasma"}, "[3]": {"tested_on": "rate corrected QT interval", "parameters": "method as in PMID 2439842", "conditions": "for effect on rate corrected QT interval: acute infusion, healthy human volunteers"}, "hERG": {"tested_on": "hERG", "parameters": "method as in PMID 12466236"}}}
{"smiles": "CC(C)N(CCC(C(N)=O)(c1ccccc1)c1ccccn1)C(C)C", "note": "(racemic) [racemic disopyramide, 4-(diisopropylamino)−2-phenyl-2-(pyridin-2-yl) butanamide]", "values": [{"measurement": "effect on rat ventricular ITO", "setting": "rat ventricular ITO", "value": "no effect"}, {"measurement": "reduction of rabbit ventricular ITO amplitude", "setting": "rabbit ventricular ITO", "value": "~ 33%"}, {"measurement": "therapeutic total plasma levels", "setting": "[1]", "value": "6 to 8", "unit": "µM"}]}
{"smiles": "CC(C)N(CC[C@@](C(N)=O)(c1ccccc1)c1ccccn1)C(C)C", "note": "[R(−) disopyramide]", "values": [{"measurement": "unbound fractions", "setting": "[2]", "value": 0.338}, {"measurement": "effect on rate corrected QT interval", "setting": "[3]", "value": "not"}]}
{"smiles": "CC(C)N(CC[C@](C(N)=O)(c1ccccc1)c1ccccn1)C(C)C", "note": "[S(+) disopyramide]", "values": [{"measurement": "unbound fractions", "setting": "[2]", "value": 0.208}, {"measurement": "effect on rate corrected QT interval", "setting": "[3]", "value": "prolongation of the rate corrected QT interval"}, {"measurement": "negative inotropic effect in humans", "setting": "[3]; compared with R(−) disopyramide", "value": "smaller negative inotropic effect"}]}
{"smiles": "CCCCN1CCCC[C@H]1C(=O)Nc1c(C)cccc1C", "note": "[levobupivacaine]", "values": [{"measurement": "potency of IhERG inhibition relative to dextrobupivacaine", "setting": "hERG", "value": "twofold"}]}
